According to US20140057915A1, “KINASE INHIBITORS” (TOPIVERT PHARMA LIMITED, priority 2012, published 2014):

How the values were obtained:
GSK3α = GSK3α (Homo sapiens, UniProt P49840); assay: GSK 3α enzyme inhibition (FRET), Method 1; format: biochemical; conditions: Table 4a1
Method in brief: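 Z-LYTE FRET format. Enzyme (500 ng/mL stock) + compound (stocks 4–0.004 μg/mL), 2 hr RT; add peptide (8 μM stock) + ATP (40 μM stock), 1 hr; protease 1 hr; read donor/acceptor emission ratio.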

[1] = tested on: ICAM-1 expression, BEAS2B cells; assay: Poly I:C-induced ICAM-1 expression in BEAS2B cells; format: cell-based; conditions: Homo sapiens, BEAS-2B; read-out: Poly IC induced ICAM1 in BEAS2B, IC50
Method in brief: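 BEAS2B human bronchial epithelial cells pre-incubated 2 h with compound, then transfected with poly I:C (1 μg/mL) plus Oligofectamine. After 18 h, cell-surface ICAM-1 read by cell-based ELISA (A450–655), normalised to Crystal Violet cell number (A595); inhibition calculated against vehicle control at each concentration.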

d-U937 cells = assay: Cell viability: MTT assay; format: cell-based, human; conditions: 1 μg/mL
Method in brief: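 Differentiated U937 cells exposed to compound at 1 or 10 μg/mL, either 4 h in 5% FCS or 24 h in 10% FCS RPMI1640. MTT then added for 1 h, formazan dissolved in DMSO and read at 550 nm. Viability loss given as % versus 0.5% DMSO vehicle; apparent gains appear negative.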

Syk = Syk (Homo sapiens, UniProt P43405); assay: Syk enzyme inhibition (FRET); format: biochemical; conditions: Table 4a1
Method in brief: (§1)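 Enzyme was preincubated with test compound (added as 4, 0.4, 0.04 or 0.004 μg/mL solutions) for 2 hr at RT. FRET peptide (8 μM solution) and ATP solution (800 μM for c-Src, 60 μM for Syk) were then added for 1 hr, followed by 1 hr protease development.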

cSrc = cSrc (Homo sapiens, UniProt P12931); assay: c-Src enzyme inhibition (FRET); format: biochemical; conditions: Table 4a1
Method in brief: as §1

[2] = tested on: TNFα release, d-U937 cells; assay: LPS-induced TNFα release in d-U937 cells; format: cell-based; conditions: Homo sapiens, dU937; relative to 10 μg/mL BIRB796; Table 4c1; read-out: LPS Induced Release of Cytokine in d-U937 Cells, TNFα REC50
Method in brief: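 U937 cells differentiated with PMA (100 ng/mL, 48–72 hr), pre-treated with compound for 2 hr, then stimulated with E. coli LPS (0.1 μg/mL) for 4 hr. Supernatant cytokine measured by sandwich ELISA; inhibition versus vehicle control, REC50 from concentration-response curve.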

[3] = tested on: IL-8 release, d-U937 cells; assay: LPS-induced IL-8 release in d-U937 cells; format: cell-based; conditions: Homo sapiens, dU937; Table 4c1; read-out: LPS Induced Release of Cytokine in d-U937 Cells, IL-8 IC50
Method in brief: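 IL-8 release after a 4 hr challenge with LPS (0.1 μg/mL, E. coli 0111:B4) following a 2 hr compound pretreatment. Cells were human U937 monocytes differentiated to macrophage-type with PMA 100 ng/mL for 48–72 hr. Relative 50% effective concentration derived from concentration–response data.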

GSK3α, sequence (P49840 whole entry): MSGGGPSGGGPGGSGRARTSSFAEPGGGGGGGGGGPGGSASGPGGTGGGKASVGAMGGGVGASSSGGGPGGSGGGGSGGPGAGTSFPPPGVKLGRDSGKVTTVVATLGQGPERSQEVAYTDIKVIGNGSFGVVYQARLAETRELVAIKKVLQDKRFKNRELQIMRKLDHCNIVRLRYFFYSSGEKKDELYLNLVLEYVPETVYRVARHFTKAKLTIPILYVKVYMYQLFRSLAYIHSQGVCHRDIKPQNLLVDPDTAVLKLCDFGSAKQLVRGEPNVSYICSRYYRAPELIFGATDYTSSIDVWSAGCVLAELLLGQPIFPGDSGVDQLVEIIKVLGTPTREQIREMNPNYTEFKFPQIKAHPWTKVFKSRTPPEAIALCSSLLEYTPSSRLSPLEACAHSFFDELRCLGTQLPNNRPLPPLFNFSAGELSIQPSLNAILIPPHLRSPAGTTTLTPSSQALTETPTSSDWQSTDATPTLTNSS
cSrc, sequence (P12931 whole entry): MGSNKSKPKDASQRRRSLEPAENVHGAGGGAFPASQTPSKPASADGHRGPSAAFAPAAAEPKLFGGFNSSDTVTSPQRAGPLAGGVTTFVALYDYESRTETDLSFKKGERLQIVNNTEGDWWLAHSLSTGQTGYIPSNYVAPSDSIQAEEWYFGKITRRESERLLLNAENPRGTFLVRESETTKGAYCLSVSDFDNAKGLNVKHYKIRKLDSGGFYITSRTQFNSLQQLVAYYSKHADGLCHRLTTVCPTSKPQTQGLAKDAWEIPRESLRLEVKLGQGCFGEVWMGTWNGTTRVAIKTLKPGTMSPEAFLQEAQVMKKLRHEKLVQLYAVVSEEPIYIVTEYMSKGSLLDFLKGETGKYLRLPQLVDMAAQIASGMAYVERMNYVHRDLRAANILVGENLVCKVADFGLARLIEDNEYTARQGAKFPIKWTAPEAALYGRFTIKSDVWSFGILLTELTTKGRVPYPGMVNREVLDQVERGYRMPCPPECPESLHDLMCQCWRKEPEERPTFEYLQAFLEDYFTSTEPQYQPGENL

Structure (SMILES)	IC50 (GSK3α)	IC50 (Syk)	IC50 (cSrc)	EC50 [2]	IC50 [3]	IC50 [1]	Cell viability at time point in d-U937 cells, 4 h (d-U937 cells)	Cell viability at time point in d-U937 cells, 24 h (d-U937 cells)
COc1ccc(-n2nc(C(C)C)cc2NC(=O)Nc2ccc(Oc3ccnc(Nc4cc(C(=O)NCCO)ccc4OC)n3)c3ccccc23)cc1 [Example 34, N-(2-hydroxyethyl)-3-((4-((4-(3-(3-isopropyl-1-(4-methoxyphenyl)-1H-pyrazol-5-yl)ureido)naphthalen-1-yl)oxy)pyrimidin-2-yl)amino)-4-methoxybenzamide]	> 14200 nM	85 nM	2 nM	14.2 nM	73.5 nM	79.9 nM	+ve (−ve and +ve indicate that the value is below and above respectively, the no significant effect threshold, defined as 30% inhibition at 1 μg/mL at the time point indicated)	−ve (−ve and +ve indicate that the value is below and above respectively, the no significant effect threshold, defined as 30% inhibition at 1 μg/mL at the time point indicated)
COc1cc(Nc2nccc(Oc3ccc(NC(=O)Nc4cc(C(C)C)nn4-c4ccc(C)c(C)c4)c4ccccc34)n2)cc(C(=O)NCCN2CCOCC2)c1 [Example 56, 3-((4-((4-(3-(1-(3,4-dimethylphenyl)-3-isopropyl-1H-pyrazol-5-yl)ureido)naphthalen-1-yl)oxy)pyrimidin-2-yl)amino)-5-methoxy-N-(2-morpholinoethyl)benzamide]	> 13000 nM	12 nM	5 nM	1.4 nM	1.7 nM	85.4 nM	−ve (−ve and +ve indicate that the value is below and above respectively, the no significant effect threshold, defined as 30% inhibition at 1 μg/mL at the time point indicated)	−ve (−ve and +ve indicate that the value is below and above respectively, the no significant effect threshold, defined as 30% inhibition at 1 μg/mL at the time point indicated)
COc1cc(Nc2cc(Oc3ccc(NC(=O)Nc4cc(C(C)C)nn4-c4ccc(C)cc4)c4ccccc34)ncn2)cc(C(=O)NCCN2CCOCC2)c1 [Example 71, 3-((6-((4-(3-(3-isopropyl-1-(p-tolyl)-1H-pyrazol-5-yl)ureido)naphthalen-1-yl)oxy)pyrimidin-4-yl)amino)-5-methoxy-N-(2-morpholinoethyl)benzamide]	5770 nM	547 nM	< 1 nM	2.7 nM	1.9 nM	7.3 nM	−ve (−ve and +ve indicate that the value is below and above respectively, the no significant effect threshold, defined as 30% inhibition at 1 μg/mL at the time point indicated)	−ve (−ve and +ve indicate that the value is below and above respectively, the no significant effect threshold, defined as 30% inhibition at 1 μg/mL at the time point indicated)
COc1cc(C(=O)NCCO)ccc1Nc1nccc(Oc2ccc(NC(=O)Nc3cc(C(C)C)nn3-c3ccc(C)cc3)c3ccccc23)n1 [Example 39, N-(2-hydroxyethyl)-4-((4-((4-(3-(3-isopropyl-1-(p-tolyl)-1H-pyrazol-5-yl)ureido)naphthalen-1-yl)oxy)pyrimidin-2-yl)amino)-3-methoxybenzamide]	> 14600 nM	130 nM	8 nM	3.6 nM	15.7 nM	146 nM	−ve (−ve and +ve indicate that the value is below and above respectively, the no significant effect threshold, defined as 30% inhibition at 1 μg/mL at the time point indicated)	−ve (−ve and +ve indicate that the value is below and above respectively, the no significant effect threshold, defined as 30% inhibition at 1 μg/mL at the time point indicated)
COc1ccc(C(=O)NCCN2CCOCC2)cc1Nc1nccc(Oc2ccc(NC(=O)Nc3cc(C(C)(C)C)nn3-c3ccc(C)cc3)c3ccccc23)n1 [Example 31, 3-((4-((4-(3-(3-(tert-butyl)-1-(p-tolyl)-1H-pyrazol-5-yl)ureido)naphthalen-1-yl)oxy)pyrimidin-2-yl)amino)-4-methoxy-N-(2-morpholinoethyl)benzamide]	9630 nM	51 nM	3 nM	2.8 nM	7.1 nM	12 nM	−ve (−ve and +ve indicate that the value is below and above respectively, the no significant effect threshold, defined as 30% inhibition at 1 μg/mL at the time point indicated)	−ve (−ve and +ve indicate that the value is below and above respectively, the no significant effect threshold, defined as 30% inhibition at 1 μg/mL at the time point indicated)

Stronger by IC50 (GSK3α), values ahead:

IC50 (GSK3α)	IC50 (Syk)	IC50 (cSrc)	EC50 [2]	IC50 [3]	Structure (SMILES)	IC50 [1]	Cell viability at time point in d-U937 cells, 4 h (d-U937 cells)	Cell viability at time point in d-U937 cells, 24 h (d-U937 cells)
1200 nM	15 nM	10 nM	0.4 nM	0.4 nM	COc1ccc(-n2nc(C(C)(C)C)cc2NC(=O)Nc2ccc(Oc3ccnc(Nc4cc(OC)cc(C(N)=O)c4)n3)c3ccccc23)cc1 [Example 41, 3-((4-((4-(3-(3-(tert-butyl)-1-(4-methoxyphenyl)-1H-pyrazol-5-yl)ureido)naphthalen-1-yl)oxy)pyrimidin-2-yl)amino)-5-methoxybenzamide]	2 nM	−ve (−ve and +ve indicate that the value is below and above respectively, the no significant effect threshold, defined as 30% inhibition at 1 μg/mL at the time point indicated)	−ve (−ve and +ve indicate that the value is below and above respectively, the no significant effect threshold, defined as 30% inhibition at 1 μg/mL at the time point indicated)
282 nM	8 nM	1 nM	0.2 nM	0.3 nM	COc1cc(Nc2nccc(Oc3ccc(NC(=O)Nc4cc(C(C)C)nn4-c4ccc(C)cc4)c4ccccc34)n2)cc(C(=O)N2CCN(C)CC2)c1 [Example 69, 1-(3-isopropyl-1-(p-tolyl)-1H-pyrazol-5-yl)-3-(4-((2-((3-methoxy-5-(4-methylpiperazine-1-carbonyl)phenyl)amino)pyrimidin-4-yl)oxy)naphthalen-1-yl)urea]	7.5 nM	−ve (−ve and +ve indicate that the value is below and above respectively, the no significant effect threshold, defined as 30% inhibition at 1 μg/mL at the time point indicated)	−ve (−ve and +ve indicate that the value is below and above respectively, the no significant effect threshold, defined as 30% inhibition at 1 μg/mL at the time point indicated)
3180 nM	16 nM	4 nM	0.4 nM	1.6 nM	COc1ccc(-n2nc(C(C)C)cc2NC(=O)Nc2ccc(Oc3ccnc(Nc4cc(OC)cc(C(=O)NCCN5CCOCC5)c4)c3)c3ccccc23)cc1 [Example 15, 3-((4-((4-(3-(3-isopropyl-1-(4-methoxyphenyl)-1H-pyrazol-5-yl)ureido)naphthalen-1-yl)oxy)pyridin-2-yl)amino)-5-methoxy-N-(2-morpholinoethyl)benzamide]	26.2 nM	−ve (−ve and +ve indicate that the value is below and above respectively, the no significant effect threshold, defined as 30% inhibition at 1 μg/mL at the time point indicated)	−ve (−ve and +ve indicate that the value is below and above respectively, the no significant effect threshold, defined as 30% inhibition at 1 μg/mL at the time point indicated)
930 nM	292 nM	< 1 nM	4.5 nM	1.3 nM	Cc1ccc(-n2nc(C3(C)COC3)cc2NC(=O)Nc2ccc(Oc3ccnc(Nc4cccc(C(=O)NCCN5CCOCC5)c4)n3)c3ccccc23)cc1 [Example 22, 3-((4-((4-(3-(3-(3-methyloxetan-3-yl)-1-(p-tolyl)-1H-pyrazol-5-yl)ureido)naphthalen-1-yl)oxy)pyrimidin-2-yl)amino)-N-(2-morpholinoethyl)benzamide]	4.1 nM	−ve (−ve and +ve indicate that the value is below and above respectively, the no significant effect threshold, defined as 30% inhibition at 1 μg/mL at the time point indicated)	−ve (−ve and +ve indicate that the value is below and above respectively, the no significant effect threshold, defined as 30% inhibition at 1 μg/mL at the time point indicated)
